Assay results published in US20080171706A1, “Anti-Adhesive Compounds to Prevent and Treat Bacterial Infections” (priority 2004, published 2008).

Experiments:
Test in all cases: biochemical
FimHtrF18 = target: T1, FimHtrF18 (Escherichia coli, UniProt P08191, N91S/S99N/V48A); assay type: binding, E. coli fecal (F18) strain; conditions: for Kd: Table 3, [3H]-mannose displacement assay (mannose measured directly), read-out: KD F18; for ΔG° F18: Table 3, calculated from KD
T1 construct: coding for the lectin domain of FimH (residues 1-158) with a C-terminal 6-histidine tag; made in house; host or cells: E. coli HB101 (lacking the fim operon), periplasmic extract, plasmid pPKL316
Protocol: (§1) To investigate if these variations reflect differences in sugar binding at the molecular level, the dissociation constants of a series of mannosides for the FimH lectin domain from a fecal (F18) and from a UPEC (Cl#4) strain were determined. […] For comparison, binding to FimHtrJ96 was also investigated. Both F18 and Cl#4 FimH lectin domains were cloned, expressed, and purified in the same way as FimHtrJ96 (Schembri et al., 2000). These two lectin domains differ from the lectin domain of FimHJ96 by substitutions Val27Ala, Asn70Ser and Ser78Asn. In addition, FimHCl#4 differs from the other two variants by a Gly73Glu substitution. […] Five different tri-mannosides corresponding to high-mannose substructures were synthesized, and their binding to FimHtrJ96, FimHtrF18 and FimHtrCl#4 measured using our [^3H]-mannose displacement assay (Table 3). Alpha-D-mannose binding was first directly measured for each of the FimH variants.
(§2) [^3H]alpha-D-mannose was obtained from Amersham. […] Syntheses of tri-mannosides was as reported earlier by Oscarson and co-workers (1993). Weighed amounts of tri-mannosides were dissolved in double distilled water to give stock solutions of 0.87 M man-(1,2)-man-(1,2)-man, 0.25 M man-(1,2)-man-(1,3)-man, 0.27 M man-(1,2)-man-(1,6)-man, 0.30 M man-(1,3)-man-(1,6)-man, 0.13 M man-(1,6)-man-(1,6)-man. Similarly, alkyl mannosides were dissolved in double distilled water to give stock solutions of 100 mM methyl mannoside, 59.8 mM ethyl mannoside, 45.9 mM propyl mannoside, 51.9 mM butyl mannoside, 17.3 mM pentyl mannoside, 20.8 mM hexyl mannoside, 15.3 mM heptyl mannoside, 15.2 mM octyl mannoside. pNPalphaMan and MeUmbalphaMan (6 mg each) were dissolved in 20 μl DMSO and diluted to 20 mM using double distilled water. Binding experiments were performed using six different concentrations of [^3H]-alpha-D-mannose (final concentrations 43.5 μM, 29.0 μM, 19.3 μM, 12.9 μM, 8.6 μM, 5.7 μM). FimHtrJ96 obtained by growing bacteria in minimal medium was used in all binding experiments. 180 μl protein at a concentration of about 500 nM was mixed with 20 μl of the radioactive ligand, and incubated at 37° C. for 20 min. To separate free ligand from bound, the mixture was rapidly filtrated through a Protran BA 85 Cellulose-nitrate filter (Schleicher & Schuell, Dassel, Germany), and washed once with 1 ml of ice-cold 1× PBS (phosphate buffered saline). Filter-bound radioactivity was measured by scintillation spectrometry within 24 hours. The displacement experiments were performed using six different concentrations (final concentrations in the range 0.0˜43.5 μM) of the inhibitor, in the presence of 43.5 μM [^3H]-alpha-D-mannose. 20 μl radioactive ligand, 20 μl inhibitor at decreasing concentrations, and 160 μl protein (500 nM) were mixed, and the experiments performed as above. All experiments were performed in duplicates. For determination of KD for α-D-mannose, a hyperbolic curve (y=P1x/(P2+x), where P2=KD) was fitted to the data. For the displacement experiments, the curve y=P1/(P2+x), where P2 is the concentration of the inhibitor displacing 50% of the labelled ligand, [I]0.5 was used instead. To calculate the inhibitor dissociation constant (KI) the Cheng & Prusoff equation (KI=[I]0.5/([L]/KL+1); KL is the constant of dissociation for the ligand) (Cheng and Prusoff, 1973), was used when both the concentration of the radioactive ligand (L) and the displacing agent (I) are in excess over the protein (LT>>PT;IT>>PT, T indicates total concentration). […] A plot of IT/((1−Y)*(LT/KL)−Y) against 1/Y gives a straight line with a slope of KI.

FimHtrJ96 = target: T2, FimHtrJ96 (Escherichia coli, UniProt P08191); assay type: binding, uropathogenic E. coli strain J96; conditions: for Kd: Table 3, [3H]-mannose displacement assay (mannose measured directly), read-out: KD J96; for ΔG° J96: Table 3, calculated from KD
T2 construct: coding for the lectin domain of FimH (residues 1-158) with a C-terminal 6-histidine tag; made in house; host or cells: E. coli HB101 (lacking the fim operon), periplasmic extract, plasmid pPKL241
Protocol: To measure the dissociation constant for FimH:alkyl or aryl-mannoside binding, two different binding assays were developed. The first binding assay uses [^3H]-mannose. The amount of radioactively labeled mannose bound to FimHtrJ96 was measured at six different concentrations of [^3H]-mannose, and a hyperbolic curve fitted to the resulting data (FIG. 1A). FimHtrJ96 corresponds to the carbohydrate (mannose) binding domain of FimH from the uropathogenic E. coli strain J96. The dissociation equilibrium constant was determined from this graph at the concentration of mannose […], which corresponds to occupation of half of the binding sites.
Surface Plasmon Resonance measurements were performed on a Biacore3000™. In a first experiment, the kinetic constants and maximal binding were determined for the FimH-antibody interaction. Next, a fixed concentration of FimH (close to the KD of the FimH-antibody interaction) in combination with varying concentrations of carbohydrate, were used to determine the dissociation equilibrium constant of the FimH-saccharide interaction in a competition experiment. Every measurement was repeated at least twice, including testing the variation between different protein and saccharide batches.
To eliminate the possibility of different binding strength for full length FimH and FimHtrJ96, the binding of alpha-D-mannose to FimC:FimH complex was also measured. […] The inhibition of [^3H]-mannose binding was used in a displacement assay to determine the dissociation constant for a synthetic butyl mannoside by measuring the amount of [^3H]-mannose bound to the protein in the presence of increasing amounts of the inhibitor (FIG. 1B). […] To investigate the effect of sequential addition of methyl groups to the O1 oxygen of D-mannose, a series of alkyl mannosides were synthesized and the dissociation constants determined using the [^3H]-mannose displacement assay and by surface plasmon resonance (Table 1).
Surface Plasmon Resonance measurements were performed on a Biacore3000™. The Fab fragments of a monoclonal antibody against FimH were covalently immobilised via lysines at 1000 Resonance Units (1000 pg ligand/mm^2) in flowcell Fc2 on a CM5 biasensor chip (BIAapplications Handbook, Biacore AB, Uppsala, Sweden). Immobilisation buffer was 100 mM NaAc pH 5.0 with 100 mM NaCl. The reference flowcell Fc1 was left blank.
Binding of FimH to the immobilized antibody was measured with a Biacore 3000 instrument in running buffer (phosphate buffered saline with 0.005% surfactant P20 and 3 mM EDTA), on both flowcells Fc1 and Fc2 simultaneously, at a flow rate of 30 μl/min and at 25° C. Complete dissociation of FimH was done with running buffer before starting a new binding cycle. For all measurements, the association time was 3 minutes, the dissociation time was 30 min. All binding cycles were performed in duplicate, including a zero concentration cycle of FimH (injection of running buffer).
In a first experiment, the kinetic constants, ka and kd, and the maximal binding Rmax, were determined for the FimH-antibody interaction (FimH concentrations (nM): 2000, 1000, 500, 250, 125, 62.5, 31.25, 15.625, 7.818, 3.911, 1.957, 0). All analyses were performed with the BIAeval software. A Langmuir binding isotherm with a 1:1 stoichiometry was fitted to the data, from which the kinetic constants and maximal binding were obtained.
In the next experiment, samples containing a fixed concentration of FimH (close to the KD of the FimH-antibody interaction) in combination with varying concentrations of saccharide, were used to determine the dissociation constant of the FimH-saccharide interaction in a competition experiment. First, ten-fold dilutions of the saccharide solution were used to determine the concentration range for binding of the saccharide to FimH.

FimHtrCl#4 = target: T3, FimHtrCl#4 (Escherichia coli, UniProt P08191, G94E/N91S/S99N/V48A); assay type: binding, E. coli UPEC (Cl#4) strain; conditions: for Kd: Table 3, [3H]-mannose displacement assay (mannose measured directly), read-out: KD CI#4; for ΔG° CI#4: Table 3, calculated from KD
T3 construct: coding for the lectin domain of FimH (residues 1-158) with a C-terminal 6-histidine tag; made in house; host or cells: E. coli HB101 (lacking the fim operon), periplasmic extract, plasmid pMAS146
Protocol: as §1, §2

T3 sequence (P08191 22-179 V48A/N91S/G94E/S99N): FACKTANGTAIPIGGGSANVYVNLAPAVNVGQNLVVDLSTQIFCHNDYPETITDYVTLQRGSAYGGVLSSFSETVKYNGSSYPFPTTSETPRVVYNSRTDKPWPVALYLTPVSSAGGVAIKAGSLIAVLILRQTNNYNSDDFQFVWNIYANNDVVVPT
T2 sequence (P08191 22-179): as the sequence (P08191 22-179 V48A/N91S/G94E/S99N) above, with A27V, S70N, E73G, N78S counted along it
T1 sequence (P08191 22-179 V48A/N91S/S99N): as the sequence (P08191 22-179 V48A/N91S/G94E/S99N) above, with E73G counted along it

Row | SMILES | Kd (FimHtrF18) [nM] | ΔG° F18 (FimHtrF18) [kcal/mol] | Kd (FimHtrJ96) [nM] | ΔG° J96 (FimHtrJ96) [kcal/mol] | Kd (FimHtrCl#4) [nM] | ΔG° CI#4 (FimHtrCl#4) [kcal/mol]
1 | OC[C@H]1O[C@H](O[C@@H]2[C@H](O)[C@@H](OC[C@H]3OC(O)[C@@H](O)[C@@H](O)[C@@H]3O)O[C@H](CO)[C@H]2O)[C@@H](O)[C@@H](O)[C@@H]1O (stereo partly drawn) [man-(1,3)-man-(1,6)-man] | 730 | -8.7 | 485 | -8.6 | 1030 | -8.5
2 | OC[C@H]1O[C@H](O[C@@H]2[C@@H](OC[C@H]3OC(O)[C@@H](O)[C@@H](O)[C@@H]3O)O[C@H](CO)[C@@H](O)[C@@H]2O)[C@@H](O)[C@@H](O)[C@@H]1O (stereo partly drawn) [man-(1,2)-man-(1,6)-man] | 1800 | -8.1 | 830 | -8.6 | 2200 | -8.0
3 | OC[C@H]1O[C@H](O[C@@H]2[C@@H](O[C@H]3[C@H](O)[C@@H](CO)OC(O)[C@H]3O)O[C@H](CO)[C@@H](O)[C@@H]2O)[C@@H](O)[C@@H](O)[C@@H]1O (stereo partly drawn) [man-(1,2)-man-(1,3)-man] | 3050 | -7.8 | 1800 | -8.1 | 3650 | -7.7
4 | OC[C@H]1O[C@H](OC[C@H]2O[C@H](OC[C@H]3OC(O)[C@@H](O)[C@@H](O)[C@@H]3O)[C@@H](O)[C@@H](O)[C@@H]2O)[C@@H](O)[C@@H](O)[C@@H]1O (stereo partly drawn) [man-(1,6)-man-(1,6)-man] | 5900 | -7.4 | 1400 | -8.3 | 7500 | -7.3
5 | OC[C@H]1O[C@H](O[C@@H]2[C@@H](O[C@@H]3C(O)O[C@H](CO)[C@@H](O)[C@@H]3O)O[C@H](CO)[C@@H](O)[C@@H]2O)[C@@H](O)[C@@H](O)[C@@H]1O (stereo partly drawn) [man-(1,2)-man-(1,2)-man] | 3250 | -7.8 | 1600 | -8.2 | 3950 | -7.7
